Results on twelve molecules are retold here after ChEMBL document CHEMBL1201862, “PubChem BioAssay data set” (2004).

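Results reflect a 48-hour exposure of cells in 96-well plates to compound at five concentrations. At the GI50, growth is halved.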 Active and inactive are the calls of the source. Cut-off read from the data, not from the text of the source: active = GI50 up to about 1.1 µM and inactive = higher.

Among the test systems are A549; CAKI-1; EKVX; HCT-15; HOP-62; HOP-92; K562; MOLT-4; NCI-H226; RXF 393; SF-268; SK-MEL-28; SK-MEL-5; SN12C; UACC-62; MCF7; MDA-MB-435; UO-31; MDA-N.
Common to all, as to assay: NCI tumour cell line growth inhibition, 48 h

On to `O=C(c1ccccc1)c1c(-c2ccccc2)sc2nc3ccccc3nc12`, for which the GI50 with A549 is > 100 µM (inactive); in the experiment on CAKI-1, > 100 µM (inactive); in the experiment with EKVX, > 100 µM (inactive); in the experiment on HCT-15, above 100 µM; in the experiment on HOP-62, 34.8 µM (inactive); with HOP-92, 16.4 µM (inactive). For the same molecule, the GI50 in the experiment on K562 was > 100 µM (inactive); in the experiment on MOLT-4, > 100 µM (inactive); in the experiment with NCI-H226 it was 20.3 µM (inactive); in the experiment with RXF 393 it was 45.4 µM (inactive); in the experiment on SF-268, > 100 µM (inactive); with SK-MEL-28, > 100 µM (inactive). Besides, the GI50 in the experiment with SK-MEL-5 is 80.9 µM (inactive); with SN12C, > 100 µM (inactive); in the experiment with UACC-62 it was > 100 µM (inactive).

For the molecule `ClC1(c2ccccc2)c2ccc(Br)cc2-c2cc(Br)ccc21`, the GI50 in the experiment with A549 is 17.1 µM (inactive); with CAKI-1, 14.9 µM (inactive); in the experiment with EKVX, 17.9 µM (inactive); with HCT-15 it was 16 µM; in the experiment on HOP-62 it was 19.3 µM (inactive); in the experiment on HOP-92 it was 15.6 µM (inactive). In addition, the GI50 is > 100 µM (inactive) in the experiment with K562; 19 µM (inactive) in the experiment with MCF7; 13.5 µM (inactive) in the experiment with MDA-MB-435; 32.5 µM (inactive) in the experiment with MOLT-4; 17.4 µM (inactive) in the experiment on NCI-H226; 18.4 µM (inactive) in the experiment on RXF 393. Further, the GI50 in the experiment on SF-268 was 18.5 µM (inactive); with SK-MEL-28, 18.8 µM (inactive); with SK-MEL-5, 15.7 µM (inactive); in the experiment on SN12C, 18.6 µM (inactive); with UO-31 it was 15.5 µM (inactive).

Take `c1ccc(C2(c3ccccc3)S/C(=C3/SC(c4ccccc4)(c4ccccc4)c4ccccc43)c3ccccc32)cc1`: the GI50 in the experiment on A549 is > 100 µM (inactive); in the experiment with CAKI-1 it was > 100 µM (inactive); in the experiment with EKVX, > 100 µM (inactive); with HCT-15, above 100 µM; with HOP-62, > 100 µM (inactive); in the experiment with HOP-92, > 100 µM (inactive). For the same molecule, the GI50 in the experiment with K562, with MDA-MB-435, in the experiment on MDA-N, in the experiment with MOLT-4, in the experiment with NCI-H226 and with RXF 393 was > 100 µM (inactive) throughout. In addition, the GI50 in the experiment with SF-268, with SK-MEL-28, in the experiment on SK-MEL-5, in the experiment with SN12C, in the experiment with UACC-62 and in the experiment on UO-31 was > 100 µM (inactive) throughout.

`CCCCN(CCCC)CC(=O)c1ccc2cc(Cl)c3ccccc3c2c1`: the GI50 in the experiment on A549 was 27.2 µM (inactive); in the experiment on CAKI-1, 29.5 µM (inactive); in the experiment with EKVX, 67.3 µM (inactive); in the experiment on HCT-15 it was 22.9 µM; in the experiment with HOP-62, 50 µM (inactive); with HOP-92, 33.5 µM (inactive). Besides, the GI50 in the experiment with K562 is 24.9 µM (inactive); with MCF7, 30.1 µM (inactive); with MDA-MB-435, 30.4 µM (inactive); in the experiment with MOLT-4, 31.5 µM (inactive); with NCI-H226, 25.3 µM (inactive); in the experiment on RXF 393, 13.4 µM (inactive). Besides, the GI50 is 16.1 µM (inactive) in the experiment with SF-268; 17.9 µM (inactive) in the experiment on SK-MEL-5; 50.7 µM (inactive) in the experiment on SN12C; 32.6 µM (inactive) in the experiment on UACC-62; 20.6 µM (inactive) in the experiment with UO-31.

`CN(C)CCCNc1ccnc2c([N+](=O)[O-])cccc12`: the GI50 was 28.2 µM (inactive) with A549; 35.3 µM (inactive) with CAKI-1; 10.5 µM (inactive) with EKVX; 22.2 µM in the experiment on HCT-15; 29.3 µM (inactive) with HOP-62; > 10 µM (inactive) in the experiment with K562. The GI50 with MOLT-4 was 21.8 µM (inactive); with NCI-H226 it was > 100 µM (inactive); in the experiment with SF-268, 19.1 µM (inactive); in the experiment with SK-MEL-28, 95.7 µM (inactive); with SN12C, 14.6 µM (inactive); with UO-31 it was 38.7 µM (inactive).

Consider `O=c1cc2ccccc2nn1-c1ccccc1Cl`, for which the GI50 with A549 was > 100 µM (inactive); with CAKI-1, > 100 µM (inactive); in the experiment on EKVX, > 100 µM (inactive); with HCT-15 it was 92.5 µM; in the experiment with HOP-62, > 100 µM (inactive); with HOP-92, > 100 µM (inactive). Also, the GI50 was 59.6 µM (inactive) in the experiment on K562; > 100 µM (inactive) with NCI-H226; 85.7 µM (inactive) in the experiment with SF-268; > 100 µM (inactive) with SK-MEL-28; 69 µM (inactive) in the experiment on SK-MEL-5; > 100 µM (inactive) in the experiment with SN12C. The results for the GI50 in the experiment with UACC-62 and in the experiment with UO-31 were 89.3 µM (inactive) and 26.2 µM (inactive), respectively.

Regarding `COc1cc(/C=C2\C[C@H]3[C@@H]4CC=C5C[C@@H](N6CCCC6)CC[C@]5(C)[C@H]4CC[C@]3(C)[C@H]2O)cc(OC)c1OC`, the GI50 is 10.6 µM (inactive) in the experiment with A549; 15.5 µM (inactive) in the experiment on CAKI-1; 16.1 µM (inactive) in the experiment with EKVX; 11.7 µM in the experiment with HCT-15; 16.1 µM (inactive) with HOP-62; 12.5 µM (inactive) with HOP-92. Moreover, the GI50 was 13 µM (inactive) in the experiment with K562; 8.71 µM (inactive) in the experiment on MCF7; 4.45 µM (inactive) with MDA-MB-435; 8.11 µM (inactive) with MOLT-4; 21.2 µM (inactive) with NCI-H226; 7.57 µM (inactive) in the experiment on RXF 393. In addition, the GI50 was 3.28 µM (inactive) with SF-268; 17.4 µM (inactive) in the experiment with SK-MEL-28; 14.5 µM (inactive) in the experiment on SK-MEL-5; 13.2 µM (inactive) in the experiment with SN12C; 18.6 µM (inactive) in the experiment with UACC-62; 2.8 µM (inactive) with UO-31.

Take `COc1cc2c(cc1O)CCN[C@@]21CS[C@H]2c3c(OC(C)=O)c(C)c4c(c3C(COC1=O)N1C2C2NC(Cc3cc(C)c(OC)c(O)c32)[C@@H]1O)OCO4` (stereo not given in full): the GI50 in the experiment with A549, in the experiment with CAKI-1, with EKVX, in the experiment with HOP-62, in the experiment on HOP-92 and in the experiment on K562 was < 0.01 µM (active) each time. Further, the GI50 with MCF7, in the experiment on MDA-MB-435, in the experiment on RXF 393, in the experiment with SF-268, in the experiment on SK-MEL-28 and with SK-MEL-5 was < 0.01 µM (active) throughout. Moreover, the GI50 with UO-31 is < 0.01 µM (active).

`CC(O)[C@@]1(c2ccccc2)CC2(CCN(C)CC2)O[C@H]1C` (stereo not given in full): the GI50 was > 100 µM (inactive) in the experiment with A549; > 100 µM (inactive) in the experiment on CAKI-1; > 100 µM (inactive) in the experiment with EKVX; above 100 µM in the experiment on HCT-15; > 100 µM (inactive) in the experiment on HOP-62; 22.2 µM (inactive) in the experiment on HOP-92. Further, the GI50 with K562, in the experiment on MCF7, with MDA-MB-435, with MOLT-4, with NCI-H226 and in the experiment on RXF 393 was > 100 µM (inactive) throughout. Besides, the GI50 was > 100 µM (inactive) in the experiment with SF-268; > 100 µM (inactive) in the experiment with SK-MEL-28; 61.2 µM (inactive) in the experiment on SK-MEL-5; 99.5 µM (inactive) in the experiment with UACC-62; 39.8 µM (inactive) with UO-31.

Take `C[n+]1c2ccccc2c(/C=N\NS(=O)(=O)c2ccc(O)c(C(=O)O)c2)c2ccccc21`: the GI50 was 23.4 µM (inactive) in the experiment with A549; 28.2 µM (inactive) with CAKI-1; 78.9 µM (inactive) in the experiment with EKVX; 38.7 µM with HCT-15; > 100 µM (inactive) with HOP-62; 46.7 µM (inactive) in the experiment with HOP-92. For the same molecule, the GI50 is 27.5 µM (inactive) in the experiment on K562; 18.5 µM (inactive) in the experiment on MOLT-4; 26.1 µM (inactive) in the experiment with NCI-H226; 32.7 µM (inactive) in the experiment on RXF 393; 40.7 µM (inactive) in the experiment on SF-268; 61.7 µM (inactive) in the experiment on SK-MEL-28. Also, the GI50 was 39.8 µM (inactive) in the experiment on SK-MEL-5, 67.8 µM (inactive) in the experiment on SN12C, 49.3 µM (inactive) in the experiment on UACC-62 and 29.2 µM (inactive) in the experiment on UO-31.

Turning to `O=c1c(C(c2ccco2)c2c(O)oc3ccccc3c2=O)c(O)oc2ccccc12`, the GI50 was 21.8 µM (inactive) with CAKI-1; 47 µM (inactive) in the experiment on EKVX; 19.1 µM in the experiment with HCT-15; > 100 µM (inactive) in the experiment on HOP-62; 25.5 µM (inactive) in the experiment on HOP-92; 38.6 µM (inactive) in the experiment with K562. Moreover, the GI50 was 31.6 µM (inactive) in the experiment with MDA-MB-435; 22.6 µM (inactive) with MDA-N; 25.6 µM (inactive) in the experiment on MOLT-4; 64.9 µM (inactive) with NCI-H226; 31.9 µM (inactive) with SF-268; 21.2 µM (inactive) in the experiment with SK-MEL-28. Moreover, the GI50 with SK-MEL-5 was 40.3 µM (inactive); in the experiment with SN12C, 25.1 µM (inactive); with UACC-62 it was 25.9 µM (inactive); in the experiment with UO-31, 25.7 µM (inactive).

Consider `Cc1ccc(/C=C2\CCCCCC2=O)cc1`, for which the GI50 in the experiment on A549 was > 100 µM (inactive); in the experiment with CAKI-1, > 100 µM (inactive); in the experiment on EKVX, > 100 µM (inactive); with HCT-15, above 100 µM; in the experiment on HOP-62, > 100 µM (inactive); in the experiment on HOP-92, > 100 µM (inactive). Also, the GI50 in the experiment on K562, in the experiment with MDA-MB-435, with MDA-N, in the experiment with MOLT-4, in the experiment with NCI-H226 and with SF-268 was > 100 µM (inactive) throughout. In addition, the GI50 with SK-MEL-28, with SK-MEL-5, with SN12C, in the experiment with UACC-62 and in the experiment on UO-31 was > 100 µM (inactive) throughout.
